Assay results published in US20120183579A1, “COMPOUNDS FOR INFLAMMATION AND IMMUNE-RELATED USES” (Synta Pharmaceuticals Corp., priority 2008, published 2012).

Test system: IL-2
Test: Inhibition of IL-2 production (Jurkat cells activated with PHA, ELISA)
Assay type: cell-based
Settings: Homo sapiens, Jurkat, Jurkat/PHA/1% FBS; activity class
Method: Jurkat cells were placed in a 96 well plate (0.5 million cells per well in 1% FBS medium), and then a test compound of this invention was added at different concentrations. After 10 minutes, the cells were activated with PHA (final concentration 2.5 μg/mL) and incubated for 20 hours at 37° C. under 5% CO2. The final volume was 200 μL. Following incubation, the cells were centrifuged, and the supernatants collected and stored at −70° C. prior to assaying for IL-2 production. A commercial ELISA kit (IL-2 Eli-pair, Diaclone Research, Besancon, France) was used to detect production of IL-2, from which dose response curves were obtained. The IC50 value was calculated as the concentration at which 50% of maximum IL-2 production after stimulation was inhibited versus a non-stimulation control.

`CC1=C(c2ccc(NC(=O)c3ccncc3C)cc2)CN(c2nccnc2Cl)CC1` [Compound 14, N-(4-(1-(3-chloropyrazin-2-yl)-4-methyl-1,2,5,6-tetrahydropyridin-3-yl)phenyl)-3-methylisonicotinamide] was tested. Which IC50 did it give?
Its IC50 is less than 0.05 µM.

`CC1=C(c2cnc(NC(=O)c3c(F)cccc3F)cn2)CN(S(=O)(=O)N(C)C)CC1` [Compound 2] was tested. Which IC50 did it give?
Its IC50 is greater than 0.1 µM.

How did the IC50 turn out when `CC1=C(c2cnc(NC(=O)c3c(F)cccc3F)cn2)CN(c2nc(C)cs2)CC1` [Compound 1, 2,6-difluoro-N-(5-(4-methyl-1-(4-methylthiazol-2-yl)-1,2,5,6-tetrahydropyridin-3-yl)pyrazin-2-yl)benzamide] was run?
Its IC50 is 0.05 to 0.1 µM.

Same assay, conditions: Homo sapiens, Jurkat, Jurkat/PHA/1% FBS; numeric values

How did the IC50 turn out when `CC1=C(c2ccc(NC(=O)c3cccc(F)c3Cl)cc2)CN(c2nnn(C)n2)CC1` [Compound 29, 2-chloro-3-fluoro-N-(4-(4-methyl-1-(2-methyl-2H-tetrazol-5-yl)-1,2,5,6-tetrahydropyridin-3-yl)phenyl) benzamide] was run?
The IC50 was 0.02 µM.

`CC1=C(c2cnc(NC(=O)c3c(F)cccc3Cl)cn2)CN(c2ncc(C)s2)CC1` [Compound 48, 2-chloro-6-fluoro-N-(5-(4-methyl-1-(5-methylthiazol-2-yl)-1,2,5,6-tetrahydropyridin-3-yl)pyrazin-2-yl)benzamide] was tested. Which IC50 did it give?
Its IC50 is 0.036 µM.

How did the IC50 turn out when `Cn1nnc(N2CCC(Cl)=C(c3ccc(NC(=O)c4c(F)cccc4Cl)cc3)C2)n1` [Compound 56, 2-chloro-N-(4-(4-chloro-1-(2-methyl-2H-tetrazol-5-yl)-1,2,5,6-tetrahydropyridin-3-yl)phenyl)-6-fluorobenzamide] was run?
The IC50 was 0.041 µM.

How did the IC50 turn out when `CC1=C(c2cnc(NC(=O)c3ccc(F)cc3F)cn2)CN(c2nccs2)CC1` [Compound 22, 2,4-difluoro-N-(5-(4-methyl-1-(thiazol-2-yl)-1,2,5,6-tetrahydropyridin-3-yl)pyrazin-2-yl)benzamide] was run?
Its IC50 is 0.01 µM.

Which IC50 does the source give for `CC1=C(c2ccc(NC(=O)c3cc(F)ccc3C)nc2)CN(c2nnn(C)n2)CC1` [Compound 53, 5-fluoro-2-methyl-N-(5-(4-methyl-1-(2-methyl-2H-tetrazol-5-yl)-1,2,5,6-tetrahydropyridin-3-yl)pyridin-2-yl) benzamide] here?
The IC50 was 0.04 µM.

How did the IC50 turn out when `CC1=C(c2cnc(NC(=O)c3c(C)cccc3F)cn2)CN(c2ncc(C)s2)CC1` [Compound 50, 2-fluoro-6-methyl-N-(5-(4-methyl-1-(5-methylthiazol-2-yl)-1,2,5,6-tetrahydropyridin-3-yl)pyrazin-2-yl)benzamide] was run?
The IC50 was 0.037 µM.

How did the IC50 turn out when `CC1=C(c2ccc(NC(=O)c3ccncc3F)cc2)CN(c2ncccc2F)CC1` [Compound 23, 3-fluoro-N-(4-(1-(3-fluoropyridin-2-yl)-4-methyl-1,2,5,6-tetrahydropyridin-3-yl)phenyl)isonicotinamide] was run?
Its IC50 is 0.014 µM.

Which IC50 does the source give for `COc1cccc(F)c1C(=O)Nc1cnc(C2=C(C)CCN(c3ncccc3F)C2)cn1` [Compound 46, 2-fluoro-N-(5-(1-(3-fluoropyridin-2-yl)-4-methyl-1,2,5,6-tetrahydropyridin-3-yl)pyrazin-2-yl)-6-methoxybenzamide] here?
The IC50 was 0.035 µM.

For `CC1=C(c2ccc(NC(=O)c3c(F)cccc3F)cc2)CN(c2nc(Cl)cs2)CC1` [Compound 54, N-(4-(1-(4-chlorothiazol-2-yl)-4-methyl-1,2,5,6-tetrahydropyridin-3-yl)phenyl)-2,6-difluorobenzamide], which IC50 is on record?
Its IC50 is 0.04 µM.

For `CC1=C(c2cnc(NC(=O)c3ccccc3Cl)cn2)CN(c2nccnc2Cl)CC1` [Compound 35, 2-chloro-N-(5-(1-(3-chloropyrazin-2-yl)-4-methyl-1,2,5,6-tetrahydropyridin-3-yl)pyrazin-2-yl)benzamide], which IC50 is on record?
Its IC50 is 0.023 µM.

How did the IC50 turn out when `CC1=C(c2ccc(NC(=O)c3c(F)cccc3F)cc2)CN(S(=O)(=O)N(C)C)CC1` [Compound 64, N-(4-(1-(N,N-dimethylsulfamoyl)-4-methyl-1,2,5,6-tetrahydropyridin-3-yl)phenyl)-2,6-difluorobenzamide] was run?
The IC50 was 0.049 µM.

With `CC1=C(c2ccc(NC(=O)c3cnccc3C)cc2)CN(c2ncccc2F)CC1` [Compound 36, N-(4-(1-(3-fluoropyridin-2-yl)-4-methyl-1,2,5,6-tetrahydropyridin-3-yl)phenyl)-4-methylnicotinamide] as the molecule, how does the IC50 read?
Its IC50 is 0.024 µM.

For `CC1=C(c2ccc(NC(=O)c3ccccc3F)cc2)CN(c2nnn(C)n2)CC1` [Compound 30, 2-fluoro-N-(4-(4-methyl-1-(2-methyl-2H-tetrazol-5-yl)-1,2,5,6-tetrahydropyridin-3-yl)phenyl)benzamide], which IC50 is on record?
The IC50 was 0.021 µM.

How did the IC50 turn out when `CC1=C(c2cnc(NC(=O)c3cccc(F)c3Cl)cn2)CN(c2ncccc2F)CC1` [Compound 49, 2-chloro-3-fluoro-N-(5-(1-(3-fluoropyridin-2-yl)-4-methyl-1,2,5,6-tetrahydropyridin-3-yl)pyrazin-2-yl)benzamide] was run?
The IC50 was 0.036 µM.

With `Cn1nnc(N2CCC(C3CC3)=C(c3ccc(NC(=O)c4c(F)cccc4F)cc3)C2)n1` [Compound 8, N-(4-(4-cyclopropyl-1-(2-methyl-2H-tetrazol-5-yl)-1,2,5,6-tetrahydropyridin-3-yl)phenyl)-2,6-difluorobenzamide] as the molecule, how does the IC50 read?
Its IC50 is 0.014 µM.

For `CC1=C(c2cnc(NC(=O)c3c(F)cccc3F)cn2)CN(c2ncccc2O)CC1` [Compound 24, 2,6-difluoro-N-(5-(1-(3-hydroxypyridin-2-yl)-4-methyl-1,2,5,6-tetrahydropyridin-3-yl)pyrazin-2-yl)benzamide], which IC50 is on record?
Its IC50 is 0.014 µM.

For `CC1=C(c2cnc(NC(=O)c3cc(F)ccc3Cl)cn2)CN(c2ncccc2F)CC1` [Compound 16, 2-chloro-5-fluoro-N-(5-(1-(3-fluoropyridin-2-yl)-4-methyl-1,2,5,6-tetrahydropyridin-3-yl)pyrazin-2-yl)benzamide], which IC50 is on record?
The IC50 was 0.03 µM.

For `CC1=C(c2ccc(NC(=O)c3cccc(F)c3C)nc2)CN(c2nnn(C)n2)CC1` [Compound 37, 3-fluoro-2-methyl-N-(5-(4-methyl-1-(2-methyl-2H-tetrazol-5-yl)-1,2,5,6-tetrahydropyridin-3-yl)pyridin-2-yl) benzamide], which IC50 is on record?
The IC50 was 0.024 µM.

For `CC1=C(c2ccc(NC(=O)c3c(F)cccc3F)cc2)CN(c2cnccn2)CC1` [Compound 58, 2,6-difluoro-N-(4-(4-methyl-1-(pyrazin-2-yl)-1,2,5,6-tetrahydropyridin-3-yl)phenyl)benzamide], which IC50 is on record?
Its IC50 is 0.044 µM.

With `CC1=C(c2cnc(NC(=O)c3c(F)cccc3F)cn2)CN(c2ncccc2C#N)CC1` [Compound 10, N-(5-(1-(3-cyanopyridin-2-yl)-4-methyl-1,2,5,6-tetrahydropyridin-3-yl)pyrazin-2-yl)-2,6-difluorobenzamide] as the molecule, how does the IC50 read?
Its IC50 is 0.018 µM.

For `O=C(Nc1ccc(C2=C(Cl)CCN(c3nccs3)C2)cc1)c1c(F)cccc1F` [Compound 28, N-(4-(4-chloro-1-(thiazol-2-yl)-1,2,5,6-tetrahydropyridin-3-yl)phenyl)-2,6-difluorobenzamide], which IC50 is on record?
The IC50 was 0.019 µM.

With `C=CCOC(=O)N1CCC(C)=C(c2ccc(NC(=O)c3c(F)cccc3F)cc2)C1` [Compound 61, allyl 3-(4-(2,6-difluorobenzamido)phenyl)-4-methyl-5,6-dihydropyridine-1(2H)-carboxylate] as the molecule, how does the IC50 read?
The IC50 was 0.046 µM.

Molecular target: T1, CRACM1/STIM1-CHOK1 (Homo sapiens, UniProt Q96D31)
T1 construct: Full length human Stim1, CracM1, CracM2 and CracM3 cDNA; Stim1 induced with doxycycline
T1 sequence (Q96D31 whole entry): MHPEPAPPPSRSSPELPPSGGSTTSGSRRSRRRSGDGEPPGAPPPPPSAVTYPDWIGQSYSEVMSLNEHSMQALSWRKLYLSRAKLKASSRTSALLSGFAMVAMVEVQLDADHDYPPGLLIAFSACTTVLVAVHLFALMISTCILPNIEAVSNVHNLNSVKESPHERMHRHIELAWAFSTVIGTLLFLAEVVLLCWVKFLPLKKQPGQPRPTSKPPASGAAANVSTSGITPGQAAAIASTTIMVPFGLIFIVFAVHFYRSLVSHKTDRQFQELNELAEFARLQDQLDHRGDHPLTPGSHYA
Test: Patch clamp inhibition of ICRAC current in CRACM1/STIM1-CHOK1 cells
Assay type: cell-based
Settings: at 500 nM, activity class
Method: Manual patch clamp experiments are conducted in the tight-seal whole-cell configuration at room temperature (21-25° C.). Patch pipettes are fashioned from borosilicate glass capillary tubes and have resistances between 2-4 MO after filling with standard intracellular solution. High resolution current recordings are acquired with a computer-based patch clamp amplifier system (EPC-10, HEKA, Lambrecht, Germany). All voltages are corrected for a liquid junction potential of 10 mV between external and internal solutions with glutamate as the intracellular anion. Currents are filtered at 2.9 kHz and digitized at 10 μs intervals. Capacitive currents and series resistance are determined and corrected before each voltage ramp using the automatic capacitance compensation of the EPC-10.
In general, a whole cell patch clamp method is used to examine the effects of a compound of the invention on a channel(s) that mediates ICRAC. In such experiments, a baseline ICRAC measurement is established within the first 70 voltage ramps, or 140 seconds, for a patched cell. Then the cells are perfused with the compound to be tested and the effect of the compound on ICRAC is measured for at least an additional 440 to 500 seconds. A compound that modulates ICRAC (e.g., inhibits) is a compound that is useful in the invention for modulating CRAC ion channel activity.
Each compound is diluted from a 10 mM stock in series using DMSO. The final DMSO concentration is always kept at 0.1%.
ICRAC currents are measured using 50 msec voltage ramps between −100 mV to +100 mV. The voltage ramps are stimulated every 2 seconds for the first 70 sweeps, then every 5 seconds for the remainder of the experiment. The membrane potential is held at 0 mV between the test ramps. In a typical experiment, the peak inward currents will develop within 50-100 seconds. Once the ICRAC current is stabilized, the cells are perfused with a test compound in the extracellular solution for at least an additional 500 seconds.
Off-line analysis with the Heka PatchMaster software is used to separate the ICRAC membrane current from the cells basal background currents. In a typical recording, InsP3 stimulated ICRAC currents begin to develop in 6 to 12 seconds after whole cell is established. Therefore, the first 1-4 voltage ramps represent the basal membrane currents in the absence of ICRAC and the average value is subtracted from all subsequent traces. The current value at −80 mV for each ramp trace is then measured and plotted against time. The resulting current versus time data is exported into a Microsoft Excel spreadsheet. The % ICRAC inhibition in each cell is calculated by comparing the amount of current just prior to the compound perfusion to the amount of current after the cells has been perfused with the compound for 440-500 seconds. The IC50 value and Hill coefficient for each compound is estimated by fitting all the individual data points to a single-site Hill equation.
TREx™-CHO cells were transfected with human Stim1 (recombinant DNA in pcDNA4/TO/myc-His™ A with a myc epitope tag in the N-terminal) and either CracM1, CracM2 or CracM3 (recombinant DNA in pcDNA 3.1 with a HA epitope tag in the N-terminal). Stably expressing cells were selected by growing the transfected cells in antibiotics for two to three weeks. Individual cell clones were isolated via serial dilution. […]

`CC1=C(c2ccc(NC(=O)c3ccncc3C)cc2)CN(c2nccnc2Cl)CC1` [Compound 14, N-(4-(1-(3-chloropyrazin-2-yl)-4-methyl-1,2,5,6-tetrahydropyridin-3-yl)phenyl)-3-methylisonicotinamide] was tested. Which inhibition at 0.5 µM did it give?
Its inhibition at 0.5 µM is 50 to 70%.

Which inhibition at 0.5 µM does the source give for `CC1=C(c2cnc(NC(=O)c3c(F)cccc3F)cn2)CN(S(=O)(=O)N(C)C)CC1` [Compound 2] here?
Its inhibition at 0.5 µM is 70 to 100%.

`CC1=C(c2cnc(NC(=O)c3c(F)cccc3F)cn2)CN(c2nc(C)cs2)CC1` [Compound 1, 2,6-difluoro-N-(5-(4-methyl-1-(4-methylthiazol-2-yl)-1,2,5,6-tetrahydropyridin-3-yl)pyrazin-2-yl)benzamide] was tested. Which inhibition at 0.5 µM did it give?
Its inhibition at 0.5 µM is 70 to 100%.
